In patent US11464784B2, “Inhibition of aminocylase 3 (AA3) in the treatment of cancer” (THE REGENTS OF THE UNIVERSITY OF CALIFORNIA, priority 2017, dated 2022):

Experiments:
[1] = system: primary colon epithelial cells; assay: MTT cell viability, normal colon cells; assay type: cell-based, human; settings: colon (FIG. 24)
From the text: (§1) Human colon cancer cell lines COLO 205, HCT 116, LS 513 (all ATCC), primary colon epithelial cells (Cell Biologics), pancreatic cancer cell lines PANC-1, MIA PaCa-2, BxPC-3, and normal pancreatic duct epithelial cells (UCLA collection) were used in experiments. COLO 205, LS 513, BxPC-3 cells were cultivated in RPMI 1640 medium with 10% FBS, HCT 116 cells were cultivated in McCoy's 5A medium with 10% FBS, PANC-1 and MIA PaCa-2 cell lines were cultivated in DMEM medium with 10% FBS, and normal colon and pancreatic cells were maintained in Human Epithelial Cell Medium (Cell Biologics).
HCC cell lines HepG2, HuH7, primary hepatocytes, colon cell lines COLO 205, HCT 116, LS 513, primary colon epithelial cells, pancreatic cancer cell lines PANC-1, MIA PaCa-2, BxPC-3, and normal pancreatic duct epithelial cells were seeded in 96-well plates at a density 10,000 cells per well in complete medium. Next day medium was changed to medium containing 1% FBS and an AA3 inhibitor (3-100 μM). 24 h later cell viability was determined using the MTT (3-(4,5-dimethylthiazol-2-yl)-2,5-diphenyltetrazolium bromide) cell viability assay. […] Then 50 μl of 20% SDS in 25 mM HCl was added to each well, incubated for 4 h and the optical density at 570 nm was measured on a VMax Kinetic Microplate Reader (Molecular Devices, Sunnyvale, Calif.).

HepG2 cells [2] = assay: MTT cell viability, HepG2; assay type: cell-based, human; settings: HepG2, within the micromolar range, 24 h
Procedure: (§2) HCC cell lines HepG2, HuH7, primary hepatocytes, colon cell lines COLO 205, HCT 116, LS 513, primary colon epithelial cells, pancreatic cancer cell lines PANC-1, MIA PaCa-2, BxPC-3, and normal pancreatic duct epithelial cells were seeded in 96-well plates at a density 10,000 cells per well in complete medium. Next day medium was changed to medium containing 1% FBS and an AA3 inhibitor (3-100 μM). 24 h later cell viability was determined using the MTT (3-(4,5-dimethylthiazol-2-yl)-2,5-diphenyltetrazolium bromide) cell viability assay. Cells were incubated during 4 h at 37° C. with 150 μl fresh media containing 0.5 mg/ml MTT. Then 50 μl of 20% SDS in 25 mM HCl was added to each well, incubated for 4 h and the optical density at 570 nm was measured on a VMax Kinetic Microplate Reader (Molecular Devices, Sunnyvale, Calif.).
(§3) To study the effect of AA3 silencing, HepG2 and HUH7 cells seeded in 96-well plates were transfected with 2 pmol AA3 siRNA using the Lipofectamine RNAiMAX reagent as per the manufacturer protocol. Cell viability was measured in the MTT assay 48 h later as described.

HuH7 cells [3] = assay: MTT cell viability, HuH7; assay type: cell-based, human; settings: HuH7, within the micromolar range, 24 h
Procedure: as §2, §3

[4] = system: normal pancreatic duct epithelial cells; assay: MTT cell viability, normal pancreatic cells; assay type: cell-based, human
From the text: as §1, §2

[5] = system: pancreatic cancer cell lines PANC-1, MIA PaCa-2, BxPC-3; assay: MTT cell viability, pancreatic cancer cell lines; assay type: cell-based, human
From the text: as §1, §2

[6] = system: colon cancer cell lines COLO 205, HCT 116, LS 513; assay: MTT cell viability, colon cancer cell lines; assay type: cell-based, human; settings: lines expressing wild type (wt) or mutant (mut) KRas
From the text: as §1, §2

[7] = system: membrane associated Ras in HepG2 cells; assay: Membrane associated Ras in HepG2 cells (immunoblot); assay type: cell-based, human; settings: HepG2, 24 h
Procedure: Cultured HCC cells and primary hepatocytes were washed with PBS buffer, treated with 0.25% Trypsin-EDTA solution (Corning) and precipitated at 1,000 rpm for 5 min. For protein extraction, HCC cells were lysed on ice by vortexing every 5 min for 30 min in RIPA buffer containing 20 mM Tris-HCl (pH 7.5), 150 mM NaCl, 5 mM EDTA, 1% Triton X-100, 0.5% sodium deoxycholate, 0.1% SDS, and 1× Halt protease inhibitor cocktail (Thermo Scientific, Waltham, Mass.). Prenylated Ras other membrane associated proteins were extracted from HCC cells using a Mem-PER Plus Kit (Thermo Scientific) according to the manufacturer's protocol. […]
HepG2 cells were seeded in 6-well plates at a density 250,000 cells per well. […] 24 h later cells were collected, washed with PBS and the membrane associated Ras proteins were extracted as described above, resolved on SDS-PAGE, and detected with the anti-Ras antibody (EMD Millipore).
To study the effect of AA3 suppression on Ras membrane association, HepG2 and HuH7 cells seeded onto 6-well plates at the same density, were transfected with 50 pmol ACY3 (AA3) Silencer Select Pre-designed siRNA (Invitrogen, Grand Island, N.Y.) using the Lipofectamine RNAiMAX reagent (Invitrogen) following the manufacturer protocol. […] After 48 h incubation, membrane associated proteins were extracted and membrane associated Ras was determined by immunoblotting as described above.

HepG2 cells [8] = assay: Levels of FC and NAFC in HepG2 cells (LC/MS); assay type: cell-based, human
Procedure: (§4) HUH7 and HepG2 cells were seeded in 6-well plates at a density 250,000 cells per well in complete medium. Next day the medium was changed to 2 ml DMEM with 1% FBS containing a 10-20 μM AA3 inhibitor. After 24 h incubation, the medium was collected, concentrated 10 times on a vacuum concentrator; 10 μl aliquots were used for quantitation by LC/MS and LC/MS/MS-MRM. The cells were trypsinized, washed in PBS and centrifuged at 2,000 g for 10 min. Then cell pellet was lysed on ice in 50 μl of 20 mM Tris-HCl, pH 7.5, containing 1% dodecyl maltoside (DDM) and 1× protease inhibitor cocktail (Sigma/Aldrich). After centrifugation (14,000 g, 10 min) the supernatants were diluted 4 times with methanol and centrifuged (14,000 g, 10 min), then the supernatants were diluted 10 times with water, and 10 μl aliquots were used for quantitation by LC/MS and LC/MS/MS-MRM as described above expect electrospray ionization was used with an Agilent 6460 triple quadrupole mass spectrometer.

[9] = system: normal primary hepatocytes; assay: MTT cell viability, normal primary hepatocytes; assay type: cell-based; settings: inhibitor 10: 0-50 μM range; inhibitor 11: in comparison with HCC cell lines
Procedure: as §2, §3

HuH7 cells [10] = assay: Levels of FC and NAFC in HuH7 cells (LC/MS); assay type: cell-based, human
Procedure: as §4

[11] = substrate: CC(=O)C/C(C)=C/CC/C(C)=C/CC/C(C)=C/CC/C(C)=C/CN[C@@H](CS)C(=O)O; assay: Substrate kinetics of mouse AA3 (mAA3); assay type: biochemical; settings: other: substrate of mAA3
[12] = HepG2, 10-20 μM inhibitor, 24 h, vs untreated
[13] = HuH7, 10-20 μM inhibitor, 24 h, vs untreated

| Molecule | toxicity for normal vs cancer cell lines [1] | toxicity (cell viability) (HepG2 cells [2]) | toxicity (cell viability) (HuH7 cells [3]) | toxicity for pancreatic normal cells [4] | toxicity for normal vs cancer cell lines ([4]; pancreatic (FIG. 25)) | toxicity for pancreatic cancer cells [5] | efficiency for pancreatic cell lines ([5]; lines expressing either wild type (wt) or mutant (mut) KRas) | growth of colon cancer cell lines [6] | level of the membrane associated Ras decreased by, % of control [7] [%] | FC level (HepG2 cells [8]; [12]) | level of NAFC (HepG2 cells [8]; [12]) | [FC]/[NAFC] ratio (HepG2 cells [8]; HepG2 treated cells (untreated ~8.4)) | toxicity to normal primary hepatocytes [9] | FC level decreased by (HuH7 cells [10]; [13]) | level of NAFC (HuH7 cells [10]; [13]) | [FC]/[NAFC] ratio (HuH7 cells [10]; HuH7 treated cells (untreated ~2.8)) | Km [11] [µM] |
| --- | --- | --- | --- | --- | --- | --- | --- | --- | --- | --- | --- | --- | --- | --- | --- | --- | --- |
| O=c1nc(-c2ccccc2)sc2ccccc12 [Inhibitor 10, 2-Phenyl-4H-1,3-benzothiazin-4-one] | significantly less toxic | toxic | toxic | toxic | significantly less toxic | toxic | efficient | suppress growth | ~50 | not significantly changed | significantly increased | ~1.6 | not toxic | approximately 50% | significantly increased | ~0.85 | – |
| mAA3 (Mus musculus) (protein) MSSLPGSREPLLRVAVTGGTHGNEMCGVYLARYWLQNPGELQRPSFSAMPVLANPAATAACCRYLDRDLNRSCTLTFLGSTATPDDPYEVKRARELNQLLGPKGTGQAFDFTLDLHNTTANTGVCLISESNISFNLHLCHYLQRQNPGMPCRLFLYEPAGTETFSVESISKNGICLEMGPQPQGVLRADLFSRMRALVASILDFIELFNQGMDLPAFEMDIYRNLGSVDFPRTADGDLAGTVHPQLQDHDFEPLRPGEPIFKLFSGEDVLYEGDSIVYPVFINEAAYYEKHVAFLKSEKIRVTVPALLRLTPRSTQTP | – | – | – | – | – | – | – | – | – | – | – | – | – | – | – | – | 25 |
